This note sets out measurements from patent publication US11247965B2 (VenatoRx Pharmaceuticals, Inc., priority 2017, dated 2022).

Data set [1] can be described thus: In vitro cytotoxicity, MTT cell viability assay in HepG2 cells. In kind it is cell-based. As to conditions: human, Cytotoxicity CC50. Put shortly: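 Viability measured by MTT conversion, absorbance at 492 nm, as percent of vehicle-treated wells. Compounds spanned 30 μM to 1.0 nM in half-log steps over a 7-day exposure of parental HepG2 cells; CC50 derived by 4-parameter curve fit.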

The subject of data set [2] is HBV replication in HepAD38 cells. The data set is described as follows: Anti-HBV activity in HepAD38 cells, extracellular HBV DNA by QPCR. To be noted: Hepatitis B virus, HePAD38, 168 h, read-out: Anti-HBV EC50, HepAD38 cells, extracellular HBV DNA by QPCR, 7 days of incubation. In kind it is cell-based, HBV (genotype D, serotype ayw). In a few lines: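 Seven-day compound exposure (30 μM down to 10 nM, half-log steps) after tetracycline withdrawal induced HBV replication in HepAD38 cells. Extracellular viral DNA measured by QPCR (copies/mL via standard curve), normalised to DMSO wells; EC50 from 4-parameter non-linear regression.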

Where only a bound is given, the exact number is not on record here.

Broadly, the CC50 is the concentration at which the toxic effect on the cells reaches its halfway point. Lower therefore signals harm at low concentration. For orientation: EC50 means the concentration needed to bring the measured effect to its halfway point. Take `O=C(Nc1ccc(F)c(F)c1)c1ccc(F)c(C(F)(F)C(=O)N2CCCCC(O)C2)c1` (stereo not shown) [Example 25, 3-(1,1-difluoro-2-(3-hydroxyazepan-1-yl)-2-oxoethyl)-N-(3,4-difluorophenyl)-4-fluorobenzamide]: the CC50 at 7 days in data set [1] is 5 to 30 µM. Further, in data set [2], the EC50 was less than 5 µM.

Regarding `C[C@H](NC(=O)C(F)(F)c1cc(C(=O)Nc2ccc(F)c(Cl)c2)cn1C)C(F)(F)F` [Example 140, (S)-N-(3-chloro-4-fluorophenyl)-5-(1,1-difluoro-2-oxo-2-((1,1,1-trifluoropropan-2-yl)amino)ethyl)-1-methyl-1H-pyrrole-3-carboxamide], the CC50 at 7 days in data set [1] was greater than 30 µM. In data set [2], the EC50 was less than 5 µM.

`Cc1cc(NC(=O)c2ccc([C@@H](O)CO)c(C(F)(F)C(=O)NC(C)(C)C)c2)ccc1F` [Example 117, (R)-3-(2-(tert-butylamino)-1,1-difluoro-2-oxoethyl)-4-(1,2-dihydroxyethyl)-N-(4-fluoro-3-methylphenyl)benzamide] had a CC50 at 7 days in data set [1] greater than 30 µM. The EC50 in data set [2] is greater than 30 µM.

Consider `Cc1cc(NC(=O)c2ccc(F)c(C(F)(F)C(=O)N3[C@@H]4CC[C@H]3CC(O)(CC#N)C4)c2)ccc1F` (stereo partly drawn) [Example 240, 3-(2-((1R,5S)-3-(cyanomethyl)-3-hydroxy-8-azabicyclo[3.2.1]octan-8-yl)-1,1-difluoro-2-oxoethyl)-4-fluoro-N-(4-fluoro-3-methylphenyl)benzamide], for which the CC50 at 7 days in data set [1] is less than 5 µM. Moreover, the EC50 in data set [2] is less than 5 µM.

In data set [1], `CC(C)(CO)NC(=O)C(F)(F)c1cc(C(=O)Nc2ccc(F)c(F)c2)ccc1F` [Example 24, 3-(1,1-difluoro-2-((1-hydroxy-2-methylpropan-2-yl)amino)-2-oxoethyl)-N-(3,4-difluorophenyl)-4-fluorobenzamide] came in with a CC50 at 7 days of 5 to 30 µM. Besides, the half-maximal effective concentration (EC50) in data set [2] fell in the range of 5 to 30 µM.

For `Cc1cc(NC(=O)c2ccc(F)c(C(F)(F)C(=O)N3CCc4[nH]cnc4C3)c2)ccc1F` [Example 238, 3-(1,1-difluoro-2-oxo-2-(1,4,6,7-tetrahydro-5H-imidazo[4,5-c]pyridin-5-yl)ethyl)-4-fluoro-N-(4-fluoro-3-methylphenyl)benzamide], the CC50 at 7 days in data set [1] is greater than 30 µM. For the same molecule, the EC50 in data set [2] was less than 5 µM.

The molecule `O=C(Nc1cc(F)c(F)c(F)c1)c1ccc(Cl)c(C(F)(F)C(=O)N2CCC(O)CC2)c1` [Example 34, 4-chloro-3-(1,1-difluoro-2-(4-hydroxypiperidin-1-yl)-2-oxoethyl)-N-(3,4,5-trifluorophenyl)benzamide] came in with a CC50 at 7 days in data set [1] of 5 to 30 µM. In data set [2], the EC50 was less than 5 µM.

With `Cc1cc(NC(=O)c2ccc(F)c(C(F)(F)C(=O)N3[C@@H]4CC[C@H]3CC(O)(CC(N)=O)C4)c2)ccc1F` (stereo partly drawn) [Example 241, 3-(2-((1R,5S)-3-(2-amino-2-oxoethyl)-3-hydroxy-8-azabicyclo[3.2.1]octan-8-yl)-1,1-difluoro-2-oxoethyl)-4-fluoro-N-(4-fluoro-3-methylphenyl)benzamide], in data set [1], the CC50 at 7 days is 5 to 30 µM. For the same molecule, in data set [2], the EC50 is less than 5 µM.

In data set [1], `Cc1cc(NC(=O)c2cc(C(C)(O)C(=O)NC(C)(C)C)cn2C)ccc1F` (stereo not shown) [Example 123, 4-(1-(tert-butylamino)-2-hydroxy-1-oxopropan-2-yl)-N-(4-fluoro-3-methylphenyl)-1-methyl-1H-pyrrole-2-carboxamide] came in with a CC50 at 7 days of 5 to 30 µM. Also, in data set [2], the EC50 lay within 5 to 30 µM.

Consider `CCN(CCO)C(=O)C(F)(F)c1cc(C(=O)Nc2ccc(F)c(F)c2)ccc1F` [Example 55, N-(3,4-difluorophenyl)-3-(2-(ethyl(2-hydroxyethyl)amino)-1,1-difluoro-2-oxoethyl)-4-fluorobenzamide], for which the CC50 at 7 days in data set [1] was greater than 30 µM. Besides, the EC50 in data set [2] lay within 5 to 30 µM.

In data set [1], `O=C(Nc1ccc(F)c(F)c1)c1ccc(F)c(C(F)(F)C(=O)NCc2cccnc2)c1` [Example 66, 3-(1,1-difluoro-2-oxo-2-((pyridin-3-ylmethyl)amino)ethyl)-N-(3,4-difluorophenyl)-4-fluorobenzamide] displayed a CC50 at 7 days greater than 30 µM. Further, the EC50 in data set [2] lay within 5 to 30 µM.

Regarding `O=C(Nc1ccc(F)c(F)c1)c1ccc(F)c(C(F)(F)C(=O)NC2CCOCC2)c1` [Example 5, 3-(1,1-difluoro-2-oxo-2-((tetrahydro-2H-pyran-4-yl)amino)ethyl)-N-(3,4-difluorophenyl)-4-fluorobenzamide], the CC50 at 7 days in data set [1] was in the range of 5 to 30 µM. Besides, the EC50 in data set [2] lay in the range of 5 to 30 µM.

As for `Cc1cc(NC(=O)c2ccc(F)c(C(F)(F)C(=O)N3CC=C(B(O)O)CC3)c2)ccc1F` [Example 154, (1-(2,2-difluoro-2-(2-fluoro-5-((4-fluoro-3-methylphenyl)carbamoyl)phenyl)acetyl)-1,2,3,6-tetrahydropyridin-4-yl)boronic acid], the CC50 at 7 days in data set [1] was in the range of 5 to 30 µM. For the same molecule, the EC50 in data set [2] is less than 5 µM.

Molecule `CC(=O)N1C[C@@H](C)N(C(=O)C(F)(F)c2cc(C(=O)Nc3ccc(F)c(C)c3)ccc2F)[C@@H](C)C1` [Example 294, 3-(2-((2S,6R)-4-acetyl-2,6-dimethylpiperazin-1-yl)-1,1-difluoro-2-oxoethyl)-4-fluoro-N-(4-fluoro-3-methylphenyl)benzamide] came in with a CC50 at 7 days in data set [1] of 5 to 30 µM. Besides, in data set [2], the concentration giving a half-maximal response (EC50) is less than 5 µM.

`Cc1cc(NC(=O)c2cc(C(F)(F)C(=O)NC(C)(C)C)n(C)c2)ccc1F` [Example 100, 5-(2-(tert-butylamino)-1,1-difluoro-2-oxoethyl)-N-(4-fluoro-3-methylphenyl)-1-methyl-1H-pyrrole-3-carboxamide] came in with a CC50 at 7 days in data set [1] greater than 30 µM. Besides, in data set [2], the EC50 was less than 5 µM.

The molecule `Cc1cc(NC(=O)c2cc(C(O)C(=O)NC(C)(C)C)cn2C)ccc1F` (stereo not shown) [Example 121, 4-(2-(tert-butylamino)-1-hydroxy-2-oxoethyl)-N-(4-fluoro-3-methylphenyl)-1-methyl-1H-pyrrole-2-carboxamide] showed a CC50 at 7 days in data set [1] greater than 30 µM. The EC50 in data set [2] was less than 5 µM.

Turning to `Cc1cc(NC(=O)c2ccc(F)c(C(F)(F)C(=O)N3[C@@H]4CCC[C@H]3C[C@H](O)C4)c2)ccc1F` [Example 217, 3-(1,1-difluoro-2-((1R,3s,5S)-3-hydroxy-9-azabicyclo[3.3.1]nonan-9-yl)-2-oxoethyl)-4-fluoro-N-(4-fluoro-3-methylphenyl)benzamide], in data set [1], the CC50 at 7 days is 5 to 30 µM. Also, the EC50 in data set [2] is less than 5 µM.

For the molecule `Cc1cc(NC(=O)c2ccc(F)c(C(F)(F)C(=O)N3[C@@H]4CCC[C@H]3CC(O)C4)c2)ccc1F` (stereo partly drawn) [Example 202, 3-(1,1-difluoro-2-((1R,5S)-3-hydroxy-9-azabicyclo[3.3.1]nonan-9-yl)-2-oxoethyl)-4-fluoro-N-(4-fluoro-3-methylphenyl)benzamide], in data set [1], the CC50 at 7 days was in the range of 5 to 30 µM. In addition, the EC50 in data set [2] was less than 5 µM.

Take `CN(CCCO)C(=O)C(F)(F)c1cc(C(=O)Nc2ccc(F)c(F)c2)ccc1F` [Example 47, 3-(1,1-difluoro-2-((3-hydroxypropyl)(methyl)amino)-2-oxoethyl)-N-(3,4-difluorophenyl)-4-fluorobenzamide]: the CC50 at 7 days in data set [1] is greater than 30 µM. Besides, the EC50 in data set [2] lay within 5 to 30 µM.

`Cc1cc(NC(=O)c2cc(C(F)(F)C(=O)N3[C@@H]4CC[C@H]3C[C@H](O)C4)c(F)cc2F)ccc1F` [Example 218, 5-(1,1-difluoro-2-((1R,3s,5S)-3-hydroxy-8-azabicyclo[3.2.1]octan-8-yl)-2-oxoethyl)-2,4-difluoro-N-(4-fluoro-3-methylphenyl)benzamide] registered a 50% cytotoxic concentration (CC50) at 7 days in data set [1] greater than 30 µM. Also, the EC50 in data set [2] is less than 5 µM.

Regarding `CC(C)n1cc(NC(=O)c2ccc(F)c(C(F)(F)C(=O)N3CCC(O)(CO)CC3)c2)cn1` [Example 186, 3-(1,1-difluoro-2-(4-hydroxy-4-(hydroxymethyl)piperidin-1-yl)-2-oxoethyl)-4-fluoro-N-(1-isopropyl-1H-pyrazol-4-yl)benzamide], the half-maximal cytotoxic concentration (CC50) at 7 days in data set [1] is greater than 30 µM. Besides, in data set [2], the EC50 fell in the range of 5 to 30 µM.

Take `Cc1cc(NC(=O)c2cc(C(F)(F)C(=O)N[C@@H]3CCCC[C@H]3O)n(C)c2)ccc1F` [Example 127, 5-(1,1-difluoro-2-(((1R,2R)-2-hydroxycyclohexyl)amino)-2-oxoethyl)-N-(4-fluoro-3-methylphenyl)-1-methyl-1H-pyrrole-3-carboxamide]: the CC50 at 7 days in data set [1] is greater than 30 µM. The EC50 in data set [2] is less than 5 µM.

As for `CC[C@H](C)NC(=O)C(F)(F)c1c(C(=O)Nc2ccc(F)c(C)c2)ccn1C` [Example 108, (S)-2-(2-(sec-butylamino)-1,1-difluoro-2-oxoethyl)-N-(4-fluoro-3-methylphenyl)-1-methyl-1H-pyrrole-3-carboxamide], the CC50 at 7 days in data set [1] was greater than 30 µM. The EC50 in data set [2] was less than 5 µM.

For the molecule `O=C(Nc1ccc(F)c(Br)c1)c1ccc(F)c(C(F)(F)C(=O)N2[C@@H]3CC[C@H]2C[C@H](O)C3)c1` [Example 189, N-(3-bromo-4-fluorophenyl)-3-(1,1-difluoro-2-((1R,3s,5S)-3-hydroxy-8-azabicyclo[3.2.1]octan-8-yl)-2-oxoethyl)-4-fluorobenzamide], the CC50 at 7 days in data set [1] fell in the range of 5 to 30 µM. In addition, in data set [2], the EC50 was less than 5 µM.

In data set [1], `Cc1cc(NC(=O)c2ccc(F)c(C(F)(F)C(=O)N3CCC(O)C(C)(C)C3)c2)ccc1F` (stereo not shown) [Example 72] returned a CC50 at 7 days of 5 to 30 µM. In addition, in data set [2], the EC50 is less than 5 µM.

Regarding `O=C(Nc1cc(F)c(F)c(F)c1)c1ccc(Cl)c(C(F)(F)C(=O)N2C3CC[C@@H]2C[C@@H](O)C3)c1` [Example 247, 4-chloro-3-(1,1-difluoro-2-((1R,3s,5S)-3-hydroxy-8-azabicyclo[3.2.1]octan-8-yl)-2-oxoethyl)-N-(3,4,5-trifluorophenyl)benzamide], in data set [1], the CC50 at 7 days fell in the range of 5 to 30 µM. Further, the EC50 in data set [2] lay within 5 to 30 µM.
